From patent publication US20250228832A1, “METHODS FOR TREATING DISORDERS AMELIORATED BY MUSCARINIC RECEPTOR ACTIVATION” (KARUNA THERAPEUTICS, INC., priority 2022, published 2025)
Like-named read-outs stand apart in the source and are kept apart here.

Legend:
Format in all cases: cell-based
[1] = biological target: T1, human M1 receptor (Homo sapiens, UniProt P11229); assay: HTRF IP-One curve shift assay, M1
T1 construct: expressed in transfected cells
T1 sequence (P11229 1-460): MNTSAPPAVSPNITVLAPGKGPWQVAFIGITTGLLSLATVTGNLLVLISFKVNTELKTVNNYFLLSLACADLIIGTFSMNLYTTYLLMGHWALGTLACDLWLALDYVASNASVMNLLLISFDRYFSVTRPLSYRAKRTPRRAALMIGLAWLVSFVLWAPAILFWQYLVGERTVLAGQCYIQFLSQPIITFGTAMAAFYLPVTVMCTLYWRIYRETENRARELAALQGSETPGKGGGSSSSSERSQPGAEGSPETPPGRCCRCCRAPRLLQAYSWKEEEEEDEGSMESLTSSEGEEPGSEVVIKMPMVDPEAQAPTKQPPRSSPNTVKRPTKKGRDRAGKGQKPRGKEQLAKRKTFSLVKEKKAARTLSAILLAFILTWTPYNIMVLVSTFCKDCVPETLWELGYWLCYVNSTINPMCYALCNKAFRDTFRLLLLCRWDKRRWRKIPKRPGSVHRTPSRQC
Procedure: (§1) HTRF IP-One assays were performed using frozen cell aliquots prepared from CHO-K1 cell lines stably expressing human M1, M3, or M5 receptors. Cells were frozen following typical cell freezing protocols. […] Dissociated cells were quenched in full media and collected by centrifugation at 290×g for 5 min. […] 1 mL aliquots of cells were dispensed into cryovial tubes and frozen in a controlled rate cryo-freezer container at −80° C. Cells were stored at −80° C. (or in liquid nitrogen if stored for at least six months) until the day of the assay.
(§2) On the day before the assay, frozen cells were rapidly thawed in a 37° C. water bath, brought up in 20 mL of full media, and collected via centrifugation at 290×g for 5 min. […] Next, […] of cells (10,000 cells/well) were dispensed into 384-well coming plates in triplicate. Cells were incubated overnight in a 37° C., 5% CO2 cell incubator.
(§3) Then, 2 μL of test compounds were added to the cells and incubated for 10 min at 37° C. in a 5% CO2 cell incubator. Next, 2 μL of diluted agonists serially diluted in assay buffer at 7× final assay concentration was added to assay plates. Finally, assay plates were incubated for two hours at 37° C. in a 5% CO2 cell incubator.
(§4) Six μL of IP-1 detection reagents (IP-One Gq HTRF kit, Cisbio Cat #62IPAPEJ) were dispensed to the cells. First, the plates were incubated for two hours at room temperature (IP-One detection reagents were made according to Cisbio protocol). Then, plates were read on an Envision plate reader following the Cisbio guidelines.
(§5) Raw data for all assays was transmitted directly from plate readers into the Beacon database for processing. All assay plates contained positive and negative control wells for data normalization and scaling. […] All control wells contained DMSO at a final assay concentration that matched the test compound wells.
(§6) Counts from the standard curve wells were used to generate a sigmoidal standard curve, which was used to transform the raw counts from each well on the plate (scaling control wells and compound wells) into a pmol/well IP1 value.

[2] = biological target: T2, human M3 receptor (Homo sapiens, UniProt P20309); assay: HTRF IP-One curve shift assay, M3
T2 construct: expressed in transfected cells
Procedure: as §1, §2, §3, §4, §5, §6

[3] = biological target: T3, human M5 receptor (Homo sapiens, UniProt P08912); assay: HTRF IP-One curve shift assay, M5; conditions: M5
T3 construct: expressed in transfected cells
T3 sequence (P08912 1-532): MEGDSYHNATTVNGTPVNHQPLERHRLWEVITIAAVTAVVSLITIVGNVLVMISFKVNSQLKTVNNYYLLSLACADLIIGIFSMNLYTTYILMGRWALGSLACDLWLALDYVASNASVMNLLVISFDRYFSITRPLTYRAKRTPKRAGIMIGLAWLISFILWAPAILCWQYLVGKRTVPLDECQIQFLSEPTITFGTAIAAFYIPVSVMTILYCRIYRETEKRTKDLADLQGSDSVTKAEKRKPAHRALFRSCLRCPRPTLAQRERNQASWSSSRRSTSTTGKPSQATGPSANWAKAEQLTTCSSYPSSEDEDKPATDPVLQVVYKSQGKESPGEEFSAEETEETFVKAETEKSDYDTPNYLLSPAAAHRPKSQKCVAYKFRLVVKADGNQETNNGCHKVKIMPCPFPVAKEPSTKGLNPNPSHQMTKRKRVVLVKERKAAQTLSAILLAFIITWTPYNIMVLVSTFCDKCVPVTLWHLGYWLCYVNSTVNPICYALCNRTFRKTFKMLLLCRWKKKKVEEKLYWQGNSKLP

[4] = Emraclidine concentration 41.2 nM, read-out: Emax
[5] = Emraclidine concentration 123 nM, read-out: Emax
[6] = Emraclidine concentration 370 nM
[7] = Emraclidine concentration 1110 nM, read-out: Emax
[8] = Emraclidine concentration 3330 nM, read-out: Emax
[9] = MK-4710 concentration 41.2 nM, read-out: Emax
[10] = MK-4710 concentration 123 nM, read-out: Emax
[11] = MK-4710 concentration 1110 nM, read-out: Emax
[12] = MK-4710 concentration 3330 nM, read-out: Emax

T2 sequence (P20309 whole entry): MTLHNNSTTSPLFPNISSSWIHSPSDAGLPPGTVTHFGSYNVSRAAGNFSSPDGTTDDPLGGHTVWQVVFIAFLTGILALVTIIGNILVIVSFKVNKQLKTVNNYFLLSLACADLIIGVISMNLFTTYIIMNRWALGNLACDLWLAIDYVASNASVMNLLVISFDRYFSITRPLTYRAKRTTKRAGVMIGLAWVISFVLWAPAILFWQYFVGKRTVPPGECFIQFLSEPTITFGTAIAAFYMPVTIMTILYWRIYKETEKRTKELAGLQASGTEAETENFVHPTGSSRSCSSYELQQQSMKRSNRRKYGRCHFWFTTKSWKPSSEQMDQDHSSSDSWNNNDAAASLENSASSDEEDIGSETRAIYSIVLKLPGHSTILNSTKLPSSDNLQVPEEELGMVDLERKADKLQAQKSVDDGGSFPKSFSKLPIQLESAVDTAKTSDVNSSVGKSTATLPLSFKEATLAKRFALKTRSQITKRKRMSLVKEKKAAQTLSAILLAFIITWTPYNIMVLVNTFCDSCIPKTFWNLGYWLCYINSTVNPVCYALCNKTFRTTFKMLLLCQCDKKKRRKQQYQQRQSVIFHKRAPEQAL

Structure (SMILES): CC1OC2(CS1)CN1CCC2CC1 (stereo not drawn) [cevimeline, Cevimeline, reference compound]
- EC50 ([1]; Emraclidine concentration 0 nM): 1.19 µM
- Emax ([1]; Emraclidine concentration 0 nM): 73.6%
- Emax [1, 4]: 81.4%
- Emax [1, 5]: 90.4%
- Emax at […] [1, 6]: 95.1%
- Emax [1, 7]: 100%
- Emax [1, 8]: 103%
- Emax at […] ([1]; Emraclidine concentration […]): 73.2%
- α (cooperativity, affinity shift) ([1]; M4 PAM Emraclidine): 1.0
- β (cooperativity, efficacy shift) ([1]; M4 PAM Emraclidine): 1.2
- τ (agonist pharmacology) ([1]; M4 PAM Emraclidine): 0.0
- α (cooperativity, affinity shift) ([1]; M4 PAM MK-4710): 3.0
- β (cooperativity, efficacy shift) ([1]; M4 PAM MK-4710): 0.5
- τ (agonist pharmacology) ([1]; M4 PAM MK-4710): 0.0
- EC50 ([1]; MK-4710 concentration 0 nM): 1.75 µM
- Emax ([1]; MK-4710 concentration 0 nM): 86.1%
- Emax [1, 9]: 102%
- Emax [1, 10]: 97.1%
- Emax at […] ([1]; MK-4710 concentration 370 nM): 92.3%
- Emax [1, 11]: 83.6%
- Emax [1, 12]: 69.9%
- Emax at […] ([1]; MK-4710 concentration […]): 88.8%
- EC50 ([2]; Emraclidine concentration 0 nM): 3.27 µM
- Emax ([2]; Emraclidine concentration 0 nM): 97.9%
- Emax [2, 4]: 96.7%
- Emax [2, 5]: 83.8%
- Emax at […] [2, 6]: 87.8%
- Emax [2, 7]: 125%
- Emax [2, 8]: 83.9%
- Emax at […] ([2]; Emraclidine concentration […]): 77.3%
- α (cooperativity, affinity shift) ([2]; M4 PAM Emraclidine): 1.0
- β (cooperativity, efficacy shift) ([2]; M4 PAM Emraclidine): 1.1
- τ (agonist pharmacology) ([2]; M4 PAM Emraclidine): 0.1
- α (cooperativity, affinity shift) ([2]; M4 PAM MK-4710): 2.1
- β (cooperativity, efficacy shift) ([2]; M4 PAM MK-4710): 0.6
- τ (agonist pharmacology) ([2]; M4 PAM MK-4710): 0.0
- EC50 ([2]; MK-4710 concentration 0 nM): 6.36 µM
- Emax ([2]; MK-4710 concentration 0 nM): 118.7%
- EC50 ([2]; MK-4710 concentration 41.2 nM): 7.6 µM
- Emax [2, 9]: 151%
- EC50 ([2]; MK-4710 concentration 123 nM): 4.88 µM
- Emax [2, 10]: 137%
- EC50 ([2]; MK-4710 concentration 370 nM): 9.67 µM
- Emax at […] ([2]; MK-4710 concentration 370 nM): 163%
- EC50 ([2]; MK-4710 concentration 1110 nM): 11.2 µM
- Emax [2, 11]: 150%
- EC50 ([2]; MK-4710 concentration 3330 nM): 4.11 µM
- Emax [2, 12]: 93.1%
- EC50 ([2]; MK-4710 concentration […]): 11.5 µM
- Emax at […] ([2]; MK-4710 concentration […]): 159%
- EC50 ([3]; Emraclidine concentration 0 nM): 1.37 µM
- Emax ([3]; Emraclidine concentration 0 nM): 90.54%
- Emax [3, 4]: 92.7%
- Emax [3, 5]: 93.5%
- Emax at […] ([3]; Emraclidine concentration 370 nM, read-out: Emax): 105%
- Emax [3, 7]: 103%
- Emax [3, 8]: 106%
- Emax at […] ([3]; Emraclidine concentration […], read-out: Emax): 102%
- α (cooperativity, affinity shift) ([3]; M4 PAM Emraclidine): 1.0
- β (cooperativity, efficacy shift) ([3]; M4 PAM Emraclidine): 0.5
- τ (agonist pharmacology) ([3]; M4 PAM Emraclidine): 0.1
- α (cooperativity, affinity shift) ([3]; M4 PAM MK-4710): 1.0
- β (cooperativity, efficacy shift) ([3]; M4 PAM MK-4710): 1.4
- τ (agonist pharmacology) ([3]; M4 PAM MK-4710): 0.1
- EC50 ([3]; MK-4710 concentration 0 nM): 3.72 µM
- Emax ([3]; MK-4710 concentration 0 nM): 70.31%
- Emax [3, 9]: 95.2%
- Emax [3, 10]: 88.2%
- Emax at […] ([3]; MK-4710 concentration 370 nM, read-out: Emax): 91.1%
- Emax [3, 11]: 78.3%
- Emax [3, 12]: 91.2%
- Emax at […] ([3]; MK-4710 concentration […], read-out: Emax): 97.3%
